Experimental data from patent US6737383B1, “Herbicidal oxadiazolidines” (priority 1999, dated 2004).

Columns and labels:
tall mallow = experiment: Test D tall mallow; format: in vivo, Malva sylvestris; conditions: Preemergence, 0 to 100 scale
Excerpt: (§1) Seeds, tubers, or plant parts of Alexandergrass (Brachiaria plantaginea), bermuda-grass (Cynodon dactylon), common pursiane (Portulaca oleracea), common ragweed (Ambrosia elatior), common groundsel (Senecio vulgaris), dallisgrass (Paspalum dilatatum), goosegrass (Eleusine indica), guineagrass (Panicum maximum), itchgrass (Rottboellia exaltata), Johnson grass (Sorghum halepense), large crabgrass (Digitaria sanguinalis), pitted morningglory (Ipomoea lacunosa), purple nutsedge (Cyperus rotundus), sandbur (Cenchrus echinatus), sourgrass (Trichachne insularis), Spanishneedles (Bidens bipinnata), surinam grass (Brachiaria decumbens) and tall mallow (Malva sylvestris) were planted into greenhouse pots of flats containing greenhouse planting medium. Plant species were grown in separate pots or individual compartments. Preemergence applications were made within one day of planting the seed or plant part.
(§2) Test chemicals were formulated in a non-phytotoxic solvent mixture which included a surfactant and applied preemergence to the surface of the pot containing seeds in a sandy loam soil. Untreated control pots and treated pots were placed in the greenhouse for growth and visually evaluated for injury 14 to 21 days after herbicide application. Plant response ratings, summarized in Table C, are based on a 0 to 100 scale where 0 is no injury and 100 is complete control. A dash (−) response means no test result.

sandbur = experiment: Test D sandbur; format: in vivo, Cenchrus echinatus; conditions: Preemergence, 0 to 100 scale
Excerpt: as §1, §2

common groundsel = experiment: Test D common groundsel; format: in vivo, Senecio vulgaris; conditions: Preemergence, 0 to 100 scale
Excerpt: as §1, §2

large crabgrass = experiment: Test D large crabgrass; format: in vivo, Digitaria sanguinalis; conditions: Preemergence, 0 to 100 scale
Outline: (§3)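 Seeds were sown in greenhouse pots, one species per pot or compartment. Compounds were in a non-phytotoxic solvent mixture with surfactant; preemergence applications went on the sandy loam surface within one day of planting. Injury was rated visually after 14 to 21 days, 0 (none) to 100 (complete control).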

bermuda-grass = experiment: Test D bermudagrass; format: in vivo, Cynodon dactylon; conditions: Preemergence, 0 to 100 scale
Excerpt: as §1, §2

common pursiane = experiment: Test D common purslane; format: in vivo, Portulaca oleracea; conditions: Preemergence, 0 to 100 scale
Excerpt: as §1, §2

goosegrass = experiment: Test D goosegrass; format: in vivo, Eleusine indica; conditions: Preemergence, 0 to 100 scale
Outline: as §3

itchgrass = experiment: Test D itchgrass; format: in vivo, Rottboellia exaltata; conditions: Preemergence, 0 to 100 scale
Excerpt: as §1, §2

pitted morningglory = experiment: Test D pitted morningglory; format: in vivo, Ipomoea lacunosa; conditions: Preemergence, 0 to 100 scale
Outline: as §3

Green foxtail [1] = experiment: Test D green foxtail; format: in vivo; conditions: Preemergence, 0 to 100 scale
Excerpt: as §1, §2

Green foxtail [2] = experiment: Test D green foxtail; format: in vivo
Outline: as §3

guineagrass = experiment: Test D guineagrass; format: in vivo, Panicum maximum; conditions: Preemergence, 0 to 100 scale
Outline: as §3

dallisgrass = experiment: Test D dallisgrass; format: in vivo, Paspalum dilatatum; conditions: Preemergence, 0 to 100 scale
Excerpt: as §1, §2

Spanishneedles = experiment: Test D Spanishneedles; format: in vivo, Bidens bipinnata; conditions: Preemergence, 0 to 100 scale
Outline: as §3

surinam grass = experiment: Test D surinam grass; format: in vivo, Brachiaria decumbens; conditions: Preemergence, 0 to 100 scale
Outline: as §3

common ragweed = experiment: Test D common ragweed; format: in vivo, Ambrosia elatior; conditions: Preemergence, 0 to 100 scale
Excerpt: as §1, §2

[3] = Rate 16 g/ha, 0 no injury, 100 complete control
[4] = Rate 32 g/ha, 0 no injury, 100 complete control
[5] = Rate 64 g/ha, 0 no injury, 100 complete control
[6] = Rate 125 g/ha, 0 no injury, 100 complete control
[7] = Rate 64 g/ha, Preemergence; 0 to 100 scale, 0 no injury, 100 complete control
[8] = Rate 125 g/ha, Preemergence; 0 to 100 scale, 0 no injury, 100 complete control

Q: CC(C)N(C(=O)n1oc(=O)n(N(C)C)c1=O)c1ccc(F)cc1 [Compound 170] was tested. Which “Plant response rating, Tall Mallow” value (tall mallow; [3]) did it give?
A: 30

Q: What about the “Plant response rating, Tall Mallow” value (tall mallow; [4]) of the same compound?
A: 30

Q: What about the “Tall Mallow plant response rating” value (tall mallow; [5]) of the same compound?
A: 30

Q: And the “Tall Mallow plant response rating” value (tall mallow; [6])?
A: 30

Q: What about the “Plant response rating, Tall Mallow” value (tall mallow; Rate 250 g/ha) of the same compound?
A: 40

Q: What about the “Plant response rating, Tall Mallow” value (tall mallow; Rate 500 g/ha) of the same compound?
A: 45

Q: And the “Plant response rating, Sandbur” value (sandbur; [3])?
A: 0

Q: And the “Plant response rating, Sandbur” value (sandbur; [4])?
A: 0

Q: What about the “Sandbur plant response rating” value (sandbur; [5]) of the same compound?
A: 40

Q: What about the “Sandbur plant response rating” value (sandbur; [6]) of the same compound?
A: 40

Q: And the “Plant response rating, Sandbur” value (sandbur; Rate 250 g/ha)?
A: 40

Q: And the “Plant response rating, Sandbur” value (sandbur; Rate 500 g/ha)?
A: 98

Q: And the “Plant response rating, Com. groundsel” value (common groundsel; [3])?
A: 0

Q: And the “Plant response rating, Com. groundsel” value (common groundsel; [4])?
A: 0

Q: And the “Plant response rating, Com. groundsel” value (common groundsel; [5])?
A: 0

Q: And the “Plant response rating, Com. groundsel” value (common groundsel; [6])?
A: 45

Q: And the “Plant response rating, Com. groundsel” value (common groundsel; Rate 250 g/ha)?
A: 45

Q: What about the “Plant response rating, Com. groundsel” value (common groundsel; Rate 500 g/ha) of the same compound?
A: 100

Q: And the “Plant response rating, Large crabgrass” value (large crabgrass; [3])?
A: 30

Q: And the “Plant response rating, Large crabgrass” value (large crabgrass; [4])?
A: 85

Q: What about the “Plant response rating, Large crabgrass” value (large crabgrass; [5]) of the same compound?
A: 100

Q: And the “Plant response rating, Large crabgrass” value (large crabgrass; [6])?
A: 100

Q: And the “Plant response rating, Large crabgrass” value (large crabgrass; Rate 250 g/ha)?
A: 100

Q: And the “Plant response rating, Large crabgrass” value (large crabgrass; Rate 500 g/ha)?
A: 100

Q: What about the “Plant response rating, Bermudagrass” value (bermuda-grass; [3]) of the same compound?
A: 80

Q: What about the “Plant response rating, Bermudagrass” value (bermuda-grass; [4]) of the same compound?
A: 90

Q: And the “Plant response rating, Bermudagrass” value (bermuda-grass; [5])?
A: 100

Q: And the “Plant response rating, Bermudagrass” value (bermuda-grass; [6])?
A: 100

Q: And the “Plant response rating, Bermudagrass” value (bermuda-grass; Rate 250 g/ha)?
A: 100

Q: And the “Plant response rating, Bermudagrass” value (bermuda-grass; Rate 500 g/ha)?
A: 100

Q: What about the “Plant response rating, C. purslane” value (common pursiane; [3]) of the same compound?
A: 0

Q: And the “Plant response rating, C. purslane” value (common pursiane; [4])?
A: 0

Q: What about the “Plant response rating, C. purslane” value (common pursiane; [5]) of the same compound?
A: 0

Q: And the “Plant response rating, C. purslane” value (common pursiane; [6])?
A: 0

Q: And the “Plant response rating, C. purslane” value (common pursiane; Rate 250 g/ha)?
A: 0

Q: And the “Plant response rating, C. purslane” value (common pursiane; Rate 500 g/ha)?
A: 10

Q: What about the “Plant response rating, Goosegrass” value (goosegrass; [3]) of the same compound?
A: 50

Q: What about the “Plant response rating, Goosegrass” value (goosegrass; [4]) of the same compound?
A: 65

Q: What about the “Plant response rating, Goosegrass” value (goosegrass; [5]) of the same compound?
A: 75

Q: And the “Plant response rating, Goosegrass” value (goosegrass; [6])?
A: 75

Q: And the “Plant response rating, Goosegrass” value (goosegrass; Rate 250 g/ha)?
A: 98

Q: And the “Plant response rating, Goosegrass” value (goosegrass; Rate 500 g/ha)?
A: 100

Q: And the “Plant response rating, Itchgrass” value (itchgrass; [3])?
A: 0

Q: What about the “Plant response rating, Itchgrass” value (itchgrass; [4]) of the same compound?
A: 0

Q: What about the “Plant response rating, Itchgrass” value (itchgrass; [5]) of the same compound?
A: 0

Q: What about the “Plant response rating, Itchgrass” value (itchgrass; [6]) of the same compound?
A: 30

Q: And the “Plant response rating, Itchgrass” value (itchgrass; Rate 250 g/ha)?
A: 45

Q: What about the “Plant response rating, Itchgrass” value (itchgrass; Rate 500 g/ha) of the same compound?
A: 50

Q: What about the “Plant response rating, P. morninglory” value (pitted morningglory; [3]) of the same compound?
A: 20

Q: What about the “Plant response rating, P. morninglory” value (pitted morningglory; [4]) of the same compound?
A: 20

Q: And the “Plant response rating, P. morninglory” value (pitted morningglory; [5])?
A: 20

Q: And the “Plant response rating, P. morninglory” value (pitted morningglory; [6])?
A: 40

Q: And the “Plant response rating, P. morninglory” value (pitted morningglory; Rate 250 g/ha)?
A: 65

Q: And the “Plant response rating, P. morninglory” value (pitted morningglory; Rate 500 g/ha)?
A: 85

Q: And the “Plant response rating, Green foxtail” value (Green foxtail [1]; Rate 250 g/ha)?
A: 100

Q: And the “Plant response rating, Green foxtail” value (Green foxtail [1]; Rate 500 g/ha)?
A: 100

Q: What about the “Plant response rating, Green foxtail” value (Green foxtail [2]; Preemergence; Rate 16 g/ha; 0 to 100 scale, 0 no injury, 100 complete control) of the same compound?
A: 65

Q: What about the “Plant response rating, Green foxtail” value (Green foxtail [2]; Preemergence; Rate 32 g/ha; 0 to 100 scale, 0 no injury, 100 complete control) of the same compound?
A: 75

Q: What about the “Plant response rating, Green foxtail” value (Green foxtail [2]; Rate 16 g/ha; Preemergence; 0 to 100 scale, 0 no injury, 100 complete control) of the same compound?
A: 65

Q: What about the “Plant response rating, Green foxtail” value (Green foxtail [2]; Rate 32 g/ha; Preemergence; 0 to 100 scale, 0 no injury, 100 complete control) of the same compound?
A: 100

Q: What about the “Green foxtail plant response rating” value (Green foxtail [2]; [7]) of the same compound?
A: 100

Q: And the “Plant response rating, Green foxtail” value (Green foxtail [2]; [7])?
A: 100

Q: And the “Green foxtail plant response rating” value (Green foxtail [2]; [8])?
A: 100

Q: What about the “Plant response rating, Green foxtail” value (Green foxtail [2]; [8]) of the same compound?
A: 100

Q: And the “Plant response rating, Green foxtail” value (Green foxtail [2]; Rate 250 g/ha; Preemergence; 0 to 100 scale)?
A: 100

Q: And the “Plant response rating, Green foxtail” value (Green foxtail [2]; Rate 500 g/ha, Preemergence; 0 to 100 scale)?
A: 100

Q: And the “Plant response rating, Guineagrass” value (guineagrass; [3])?
A: 0

Q: What about the “Plant response rating, Guineagrass” value (guineagrass; [4]) of the same compound?
A: 85

Q: And the “Plant response rating, Guineagrass” value (guineagrass; [5])?
A: 98

Q: And the “Plant response rating, Guineagrass” value (guineagrass; [6])?
A: 100

Q: What about the “Plant response rating, Guineagrass” value (guineagrass; Rate 250 g/ha) of the same compound?
A: 100

Q: And the “Plant response rating, Guineagrass” value (guineagrass; Rate 500 g/ha)?
A: 100

Q: What about the “Plant response rating, Dallisgrass” value (dallisgrass; [3]) of the same compound?
A: 0

Q: What about the “Plant response rating, Dallisgrass” value (dallisgrass; [4]) of the same compound?
A: 0

Q: And the “Plant response rating, Dallisgrass” value (dallisgrass; [5])?
A: 85

Q: And the “Plant response rating, Dallisgrass” value (dallisgrass; [6])?
A: 85

Q: What about the “Plant response rating, Dallisgrass” value (dallisgrass; Rate 250 g/ha) of the same compound?
A: 100

Q: What about the “Plant response rating, Dallisgrass” value (dallisgrass; Rate 500 g/ha) of the same compound?
A: 100

Q: What about the “Plant response rating, Spanishneedles” value (Spanishneedles; [3]) of the same compound?
A: 0

Q: What about the “Plant response rating, Spanishneedles” value (Spanishneedles; [4]) of the same compound?
A: 0

Q: And the “Spanishneedles plant response rating” value (Spanishneedles; [5])?
A: 0

Q: And the “Spanishneedles plant response rating” value (Spanishneedles; [6])?
A: 0

Q: What about the “Plant response rating, Spanishneedles” value (Spanishneedles; Rate 250 g/ha) of the same compound?
A: 40

Q: And the “Plant response rating, Spanishneedles” value (Spanishneedles; Rate 500 g/ha)?
A: 85

Q: What about the “Plant response rating, Surinam grass” value (surinam grass; [3]) of the same compound?
A: 0

Q: And the “Plant response rating, Surinam grass” value (surinam grass; [4])?
A: 0

Q: What about the “Surinam grass plant response rating” value (surinam grass; [5]) of the same compound?
A: 30

Q: What about the “Surinam grass plant response rating” value (surinam grass; [6]) of the same compound?
A: 75

Q: What about the “Plant response rating, Surinam grass” value (surinam grass; Rate 250 g/ha) of the same compound?
A: 100

Q: And the “Plant response rating, Surinam grass” value (surinam grass; Rate 500 g/ha)?
A: 100

Q: And the “Plant response rating, C. ragweed” value (common ragweed; [3])?
A: 0

Q: And the “Plant response rating, C. ragweed” value (common ragweed; [4])?
A: 0

Q: And the “Plant response rating, C. ragweed” value (common ragweed; [5])?
A: 0

Q: What about the “Plant response rating, C. ragweed” value (common ragweed; [6]) of the same compound?
A: 0

Q: And the “Plant response rating, C. ragweed” value (common ragweed; Rate 250 g/ha)?
A: 40

Q: What about the “Plant response rating, C. ragweed” value (common ragweed; Rate 500 g/ha) of the same compound?
A: 45
